Measured values taken from patent US20230117470A1, “SUBSTITUTED PYRAZOLE COMPOUNDS AS TOLL RECEPTOR INHIBITORS” (BRISTOL-MYERS SQUIBB COMPANY, priority 2019, published 2023).
pIC50: −log10 of the molar value.

How the values were obtained:
Format in all cases: cell-based
[1] = target: T1, human TLR7 (Homo sapiens, UniProt Q9NYK1); test: TLR7 inhibition reporter assay (HEK-Blue cells, SEAP reporter, gardiquimod stimulation); conditions: HEK-Blue cells overexpressing human TLR7, SEAP reporter, gardiquimod 7.5 μM
T1 construct: host or cells: HEK-Blue cells
T1 sequence (Q9NYK1 27-1049): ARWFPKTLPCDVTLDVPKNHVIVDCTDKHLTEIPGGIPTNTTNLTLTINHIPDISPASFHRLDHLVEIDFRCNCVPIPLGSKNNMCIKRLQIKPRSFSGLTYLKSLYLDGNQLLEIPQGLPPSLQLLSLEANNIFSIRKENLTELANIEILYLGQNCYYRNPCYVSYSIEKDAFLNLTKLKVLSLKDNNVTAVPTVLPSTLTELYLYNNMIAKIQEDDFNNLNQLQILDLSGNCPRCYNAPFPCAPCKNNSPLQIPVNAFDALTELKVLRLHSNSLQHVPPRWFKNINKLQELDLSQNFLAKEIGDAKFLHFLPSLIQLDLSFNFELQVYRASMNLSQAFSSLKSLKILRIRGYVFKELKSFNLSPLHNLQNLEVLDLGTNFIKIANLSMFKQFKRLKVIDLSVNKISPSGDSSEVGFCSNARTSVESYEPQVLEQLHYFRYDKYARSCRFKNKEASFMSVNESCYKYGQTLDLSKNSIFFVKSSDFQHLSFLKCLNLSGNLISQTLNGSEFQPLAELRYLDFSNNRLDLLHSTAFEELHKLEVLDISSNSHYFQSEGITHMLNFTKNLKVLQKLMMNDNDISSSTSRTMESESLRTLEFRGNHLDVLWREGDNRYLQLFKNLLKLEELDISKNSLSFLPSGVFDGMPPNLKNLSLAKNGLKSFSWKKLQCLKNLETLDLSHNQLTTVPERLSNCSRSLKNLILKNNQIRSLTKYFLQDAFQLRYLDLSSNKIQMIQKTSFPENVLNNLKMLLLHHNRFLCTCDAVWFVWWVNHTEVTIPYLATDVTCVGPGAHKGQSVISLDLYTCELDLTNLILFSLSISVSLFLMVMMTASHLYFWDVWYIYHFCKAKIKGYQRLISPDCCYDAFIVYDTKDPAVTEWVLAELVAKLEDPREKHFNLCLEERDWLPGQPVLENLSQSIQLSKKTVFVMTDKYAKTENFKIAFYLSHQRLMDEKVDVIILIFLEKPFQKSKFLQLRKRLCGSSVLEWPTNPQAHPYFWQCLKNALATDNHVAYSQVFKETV
Summary of the method: (§1)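 30 min RT cpd pre-incubation (0.05 nM–50 μM final dose response) → agonist: gardiquimod 7.5 μM / R848 15.9 μM / ODN2006 5 nM for TLR7/8/9 resp. → 22 h, 37° C → SEAP via detection medium. % inhibition vs agonist+DMSO and reference inhibitor controls.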

[2] = target: T2, human TLR8 (Homo sapiens, UniProt Q9NR97); test: TLR8 inhibition reporter assay (HEK-Blue cells, SEAP reporter, R848 stimulation); conditions: HEK-Blue cells overexpressing human TLR8, SEAP reporter, R848 15.9 μM
T2 construct: host or cells: HEK-Blue cells
T2 sequence (Q9NR97 27-1041): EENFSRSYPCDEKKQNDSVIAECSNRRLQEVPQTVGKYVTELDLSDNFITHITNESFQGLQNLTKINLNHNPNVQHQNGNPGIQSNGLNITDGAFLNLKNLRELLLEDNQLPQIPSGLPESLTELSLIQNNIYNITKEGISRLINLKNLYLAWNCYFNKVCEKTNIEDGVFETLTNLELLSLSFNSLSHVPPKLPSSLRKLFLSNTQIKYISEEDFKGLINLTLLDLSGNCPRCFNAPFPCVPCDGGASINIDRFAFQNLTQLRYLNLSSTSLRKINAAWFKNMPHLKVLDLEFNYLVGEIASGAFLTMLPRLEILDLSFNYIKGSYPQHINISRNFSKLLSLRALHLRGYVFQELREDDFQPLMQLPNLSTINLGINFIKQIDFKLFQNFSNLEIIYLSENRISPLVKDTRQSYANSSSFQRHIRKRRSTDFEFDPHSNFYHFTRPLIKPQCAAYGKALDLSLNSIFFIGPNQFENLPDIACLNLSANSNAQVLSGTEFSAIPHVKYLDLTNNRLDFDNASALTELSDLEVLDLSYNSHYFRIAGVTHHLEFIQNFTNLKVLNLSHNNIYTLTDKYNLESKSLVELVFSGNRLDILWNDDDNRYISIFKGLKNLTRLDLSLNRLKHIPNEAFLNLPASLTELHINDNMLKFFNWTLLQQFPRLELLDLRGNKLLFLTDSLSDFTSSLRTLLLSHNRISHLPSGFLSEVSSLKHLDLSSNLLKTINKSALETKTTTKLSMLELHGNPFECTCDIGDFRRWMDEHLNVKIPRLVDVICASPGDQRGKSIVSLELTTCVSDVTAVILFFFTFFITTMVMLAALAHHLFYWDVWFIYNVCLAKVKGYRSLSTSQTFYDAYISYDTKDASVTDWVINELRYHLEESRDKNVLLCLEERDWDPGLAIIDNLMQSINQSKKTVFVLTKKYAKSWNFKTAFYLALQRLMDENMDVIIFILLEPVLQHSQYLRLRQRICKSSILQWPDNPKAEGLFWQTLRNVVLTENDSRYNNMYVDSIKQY
Summary of the method: as §1

[3] = target: T3, human TLR9 (Homo sapiens, UniProt Q9NR96); test: TLR9 inhibition reporter assay (HEK-Blue cells, SEAP reporter, ODN2006 stimulation); conditions: HEK-Blue cells overexpressing human TLR9, SEAP reporter, ODN2006 5 nM
T3 construct: host or cells: HEK-Blue cells
T3 sequence (Q9NR96 26-1032): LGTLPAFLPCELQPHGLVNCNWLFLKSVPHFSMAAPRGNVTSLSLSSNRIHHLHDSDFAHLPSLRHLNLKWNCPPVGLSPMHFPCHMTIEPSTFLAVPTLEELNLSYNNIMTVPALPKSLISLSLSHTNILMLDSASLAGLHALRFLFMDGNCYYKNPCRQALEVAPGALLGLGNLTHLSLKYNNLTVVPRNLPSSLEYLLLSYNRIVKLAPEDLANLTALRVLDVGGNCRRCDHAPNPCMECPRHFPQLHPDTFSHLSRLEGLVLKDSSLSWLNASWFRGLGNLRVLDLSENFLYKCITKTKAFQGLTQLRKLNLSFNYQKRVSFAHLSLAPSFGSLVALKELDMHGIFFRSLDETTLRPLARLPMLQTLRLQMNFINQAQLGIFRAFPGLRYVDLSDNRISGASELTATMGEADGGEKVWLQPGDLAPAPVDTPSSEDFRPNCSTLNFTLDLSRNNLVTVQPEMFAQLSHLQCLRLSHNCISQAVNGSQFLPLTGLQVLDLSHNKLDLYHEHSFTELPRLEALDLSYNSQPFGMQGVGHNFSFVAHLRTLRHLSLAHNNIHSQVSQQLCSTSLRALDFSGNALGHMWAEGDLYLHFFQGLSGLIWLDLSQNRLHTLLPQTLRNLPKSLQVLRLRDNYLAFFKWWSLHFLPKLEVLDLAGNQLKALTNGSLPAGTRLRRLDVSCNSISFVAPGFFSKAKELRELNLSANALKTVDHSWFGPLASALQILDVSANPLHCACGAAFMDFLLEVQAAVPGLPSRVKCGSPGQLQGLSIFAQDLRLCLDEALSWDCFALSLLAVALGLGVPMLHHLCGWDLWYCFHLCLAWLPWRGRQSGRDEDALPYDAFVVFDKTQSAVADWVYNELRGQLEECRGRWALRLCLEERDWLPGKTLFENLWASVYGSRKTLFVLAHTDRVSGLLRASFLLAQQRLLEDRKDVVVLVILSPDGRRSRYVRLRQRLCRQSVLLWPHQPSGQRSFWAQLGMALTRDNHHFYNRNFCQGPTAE
Summary of the method: as §1

In the case of `CCCN1CC(c2ccc(-c3n[nH]c(-c4cc(C)c5ncnn5c4)c3C(C)C)cc2)C1` [Example 326], the pIC50 [1] was 8.27, the pIC50 [2] was 8.10 and the pIC50 [3] was 4.75.

Work on `Cc1cc(-c2[nH]nc(-c3ccc(C4CN(C(C)C)C4)cc3)c2C(C)C)cn2ncnc12` [Example 327] yielded a pIC50 [1] of 8.12, a pIC50 [2] of 8.15 and a pIC50 [3] of 4.80.

In the case of `COc1cc(-c2[nH]nc(-c3ccc(C4CN(C)C4)cc3)c2C(C)C)cn2ncnc12` [Example 328], the pIC50 [1] was 7.89, the pIC50 [2] was 7.89 and the pIC50 [3] was 4.73.

Work on `CCN1CC(c2ccc(-c3n[nH]c(-c4cc(OC)c5ncnn5c4)c3C(C)C)cc2)C1` [Example 329] yielded a pIC50 [1] of 6.38, a pIC50 [2] of 7.22 and a pIC50 [3] of 4.83.

For `CCCN1CC(c2ccc(-c3n[nH]c(-c4cc(OC)c5ncnn5c4)c3C(C)C)cc2)C1` [Example 330], the pIC50 [1] was 8.08, the pIC50 [2] was 8.82 and the pIC50 [3] was 4.94.

In the case of `COc1cc(-c2[nH]nc(-c3ccc(C4CN(C(C)C)C4)cc3)c2C(C)C)cn2ncnc12` [Example 331], the pIC50 [1] was 8.37, the pIC50 [2] was 9.31 and the pIC50 [3] was 5.20.

For `COc1cc(-c2[nH]nc(-c3ccc(C4CN(C5COC5)C4)cc3)c2C(C)C)cn2ncnc12` [Example 332], the pIC50 [1] was 7.77, the pIC50 [2] was 8.72 and the pIC50 [3] was 4.99.

`COc1cc(-c2[nH]nc(-c3ccc(C4CN(C5CCOCC5)C4)cc3)c2C(C)C)cn2ncnc12` [Example 333] gave a pIC50 [1] of 7.46, a pIC50 [2] of 8.66 and a pIC50 [3] of 4.43.

`Cc1cc(-c2[nH]nc(-c3ccc(C4CN(C(=O)CN(C)C)C4)cc3)c2C(C)C)cn2ncnc12` [Example 334, 2-(dimethylamino)-1-(3-(4-(4-isopropyl-5-(8-methyl-[1,2,4]triazolo[1,5-a]pyridin-6-yl)-1H-pyrazol-3-yl)phenyl)azetidin-1-yl)ethan-1-one] showed a pIC50 [1] of 7.87, a pIC50 [2] of 8.50 and a pIC50 [3] of 5.32.

In the case of `Cc1cc(-c2[nH]nc(-c3ccc(C4CN(CC(C)(C)O)C4)cc3)c2C(C)C)cn2ncnc12` [Example 336, 1-(3-(4-(4-isopropyl-5-(8-methyl-[1,2,4]triazolo[1,5-a]pyridin-6-yl)-1H-pyrazol-3-yl)phenyl)azetidin-1-yl)-2-methylpropan-2-ol], the pIC50 [1] was 7.87, the pIC50 [2] was 7.40 and the pIC50 [3] was 4.42.

Work on `COc1cc(-c2[nH]nc(-c3ccc(C4CN(CC(C)(C)O)C4)cc3)c2C(C)C)cn2ncnc12` [Example 337] yielded a pIC50 [1] of 8.08, a pIC50 [2] of 8.12 and a pIC50 [3] of 4.37.

With `COc1cc(-c2[nH]nc(-c3ccc(C4CN(CCS(C)(=O)=O)C4)cc3)c2C(C)C)cn2ncnc12` [Example 338] the pIC50 [1] was 8.00, the pIC50 [2] was 7.51 and the pIC50 [3] was 4.34.

Work on `COc1cc(-c2[nH]nc(-c3ccc(C4CCNCC4)cn3)c2C(C)C)cn2ncnc12` [Example 339, 6-(4-isopropyl-3-(5-(piperidin-4-yl)pyridin-2-yl)-1H-pyrazol-5-yl)-8-methoxy-[1,2,4]triazolo[1,5-a]pyridine] yielded a pIC50 [1] of 7.70, a pIC50 [2] of 8.41 and a pIC50 [3] of 4.44.

`Cc1cc(-c2[nH]nc(-c3ccc(C4CCNCC4)nc3)c2C(C)C)cn2ncnc12` [Example 340] showed a pIC50 [1] of 8.33, a pIC50 [2] of 8.47 and a pIC50 [3] of 5.28.

In the case of `Cc1cc(-c2[nH]nc(-c3ncc(C4CCNCC4)cn3)c2C(C)C)cn2ncnc12` [Example 341], the pIC50 [1] was 8.10, the pIC50 [2] was 8.05 and the pIC50 [3] was 4.78.

`Cc1cc(-c2[nH]nc(-c3ccc(C4CCNCC4)cn3)c2C(C)C)cn2ncnc12` [Example 342] showed a pIC50 [1] of 7.71, a pIC50 [2] of 7.90 and a pIC50 [3] of less than 4.30.

In the case of `Cc1cc(-c2[nH]nc(-c3cnc(C4CCNCC4)nc3)c2C(C)C)cn2ncnc12` [Example 343], the pIC50 [1] was 7.62, the pIC50 [2] was 8.48 and the pIC50 [3] was less than 4.30.

In the case of `Cc1cc(-c2[nH]nc(-c3ccc(C4CCNCC4)nn3)c2C(C)C)cn2ncnc12` [Example 344], the pIC50 [1] was 7.41, the pIC50 [2] was 7.90 and the pIC50 [3] was less than 4.30.

For `COc1cc(-c2[nH]nc(-c3cnc(C4CCNCC4)cn3)c2C(C)C)cn2ncnc12` [Example 345], the pIC50 [1] was 7.63, the pIC50 [2] was 8.51 and the pIC50 [3] was less than 4.30.

For `COc1c(C)c(-c2[nH]nc(-c3ccc(C4CCNCC4)cn3)c2C(C)C)cn2ncnc12` [Example 346], the pIC50 [1] was 8.20, the pIC50 [2] was 8.10 and the pIC50 [3] was 4.72.

In the case of `CCN1CCC(c2ccc(-c3n[nH]c(-c4cc(OC)c5ncnn5c4)c3C(C)C)nc2)CC1` [Example 347, 6-(3-(5-(1-ethylpiperidin-4-yl)pyridin-2-yl)-4-isopropyl-1H-pyrazol-5-yl)-8-methoxy-[1,2,4]triazolo[1,5-a]pyridine], the pIC50 [1] was 7.64, the pIC50 [2] was 7.35 and the pIC50 [3] was less than 4.30.

`COc1cc(-c2[nH]nc(-c3ccc(C4CCN(C)CC4)cn3)c2C(C)C)cn2ncnc12` [Example 348] was tested, and the pIC50 [1] was 7.72, the pIC50 [2] was 7.65 and the pIC50 [3] was less than 4.30.

In the case of `CCCN1CCC(c2ccc(-c3n[nH]c(-c4cc(OC)c5ncnn5c4)c3C(C)C)nc2)CC1` [Example 349], the pIC50 [1] was 7.04, the pIC50 [2] was 8.73 and the pIC50 [3] was less than 4.30.
